Results on 4 molecules are retold here after patent US6369079B1 (Sepracor, Inc., priority 1998, dated 2002).

The conditions of series [1]: cited from earlier work.
The conditions of series [2]: co-administration with ketoconazole; cited from earlier work.
The target of series [3] is T1, cloned human serotonin 5-HT1A receptor (Homo sapiens, UniProt P08908).
T1 construct: host or cells: NIH 3T3 cells
T1 sequence (P08908 1-422): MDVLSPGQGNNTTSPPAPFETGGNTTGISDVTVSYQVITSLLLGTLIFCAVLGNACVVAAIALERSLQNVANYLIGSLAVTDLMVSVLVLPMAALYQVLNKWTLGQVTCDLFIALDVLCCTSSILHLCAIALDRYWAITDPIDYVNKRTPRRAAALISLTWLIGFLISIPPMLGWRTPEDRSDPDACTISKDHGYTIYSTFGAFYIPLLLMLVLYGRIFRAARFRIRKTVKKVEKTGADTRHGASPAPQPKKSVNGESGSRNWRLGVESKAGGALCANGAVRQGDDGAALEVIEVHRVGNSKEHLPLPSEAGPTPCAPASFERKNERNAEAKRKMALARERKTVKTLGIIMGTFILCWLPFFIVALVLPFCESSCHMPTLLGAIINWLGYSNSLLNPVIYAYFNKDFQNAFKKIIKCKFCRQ
Nature of the series: R-SAT 5-HT1A receptor activity (agonist/antagonist). Type of series: cell-based. As to conditions: antagonist activity against 2 μM 5-HT, NIH 3T3 cells, read-out: Calculated IC50 at 5-HT1A receptor. How it is done: The assay involves co-expression of a marker enzyme, β-galactosidase, with the serotonin receptor of interest. Ligands stimulate proliferation of cells that express the receptor and, therefore, the marker. Ligand-induced effects can be determined by assay of the marker.
NIH 3T3 cells are incubated, plated, and then transfected using human 5-HT1A serotonin receptors, pSV-β-galactosidase, and salmon sperm DNA. The medium is changed one day later, and after 2 days, aliquots of the trypsinized cells are placed in wells of a 96 well plate. After five days in culture in the presence of the ligands, the levels of β-galactosidase are measured. The cells are then rinsed and incubated with the substrate, […] β-D-galactopyranoside.
Data from antagonist inhibition of the compounds are fit to the equation:
Response Max Response +(Min Response)/1+(Ligand Conc/[…])

For series [4], the target named is T2, 5-HT3 receptor subtypes derived from N1E-115 cells (Mus musculus, UniProt P23979).
T2 construct: host or cells: N1E-115 cells
T2 sequence (P23979 24-489): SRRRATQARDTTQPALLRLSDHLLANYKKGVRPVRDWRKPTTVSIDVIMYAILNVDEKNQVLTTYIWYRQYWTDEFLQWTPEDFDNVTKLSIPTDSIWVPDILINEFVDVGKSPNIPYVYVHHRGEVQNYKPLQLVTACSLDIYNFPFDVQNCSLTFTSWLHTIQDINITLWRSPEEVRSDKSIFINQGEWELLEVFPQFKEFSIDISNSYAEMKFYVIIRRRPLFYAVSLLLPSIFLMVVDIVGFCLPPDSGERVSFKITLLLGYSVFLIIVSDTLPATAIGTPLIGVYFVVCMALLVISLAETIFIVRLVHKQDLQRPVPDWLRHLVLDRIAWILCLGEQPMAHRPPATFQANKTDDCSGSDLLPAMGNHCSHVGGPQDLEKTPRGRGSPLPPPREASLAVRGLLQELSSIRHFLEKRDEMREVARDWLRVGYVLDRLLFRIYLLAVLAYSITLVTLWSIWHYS
Nature of the series: 5-HT3 receptor radioligand binding (Cerep). As to conditions: IC50 for binding to 5-HT3 sites, inhibition of specific radioligand binding. On the procedure: Following incubation with the appropriate ligands, the preparations are rapidly filtered under vacuum through GF/B glass fiber filters and washed with ice-cold buffer using a Brandel or Packard cell harvester.
(§1) Specific radioligand binding to the receptor is defined as the difference between total binding and nonspecific binding determined in the presence of an excess of unlabeled ligand. Results are expressed as a percent inhibition of specific binding obtained in the presence of the compounds.

Series [5] has as its target T3, 5-HT4 receptor subtypes derived from guinea-pig striata (Cavia porcellus, UniProt O70528).
T3 construct: tissue Cerep, Celle l'Evescault, France; host or cells: guinea-pig striata
Nature of the series: 5-HT4 receptor radioligand binding (Cerep). To be noted: IC50 for binding to 5-HT4 sites, inhibition of specific radioligand binding. On the procedure:
Following incubation with the appropriate ligands, the preparations are raidly filtered under vacuum through GF/B glass fiber filters and washed with ice-cold buffer using a Brandel or Packard cell harvester.
as §1

T3 sequence (O70528 whole entry): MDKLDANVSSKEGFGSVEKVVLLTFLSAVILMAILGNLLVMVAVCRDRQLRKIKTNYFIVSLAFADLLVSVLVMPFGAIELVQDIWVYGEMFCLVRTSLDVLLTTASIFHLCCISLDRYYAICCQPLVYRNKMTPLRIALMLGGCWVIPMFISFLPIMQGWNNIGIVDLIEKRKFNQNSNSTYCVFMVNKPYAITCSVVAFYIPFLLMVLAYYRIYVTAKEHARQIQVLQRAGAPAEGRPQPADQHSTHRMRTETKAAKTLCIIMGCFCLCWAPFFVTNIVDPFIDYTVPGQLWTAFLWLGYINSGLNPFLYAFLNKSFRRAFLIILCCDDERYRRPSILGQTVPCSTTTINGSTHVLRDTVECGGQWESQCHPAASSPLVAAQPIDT

For `COc1cc(N)c(Cl)cc1C(=O)NC1CCN(CCCOc2ccc(F)cc2)CC1OC` (racemic) [(±) Cisapride, cis-4-amino-5-chloro-N-[1-[3-(4-fluorophenoxy)propyl]-3-methoxy-4-piperidinyl]-2-methoxybenamide], the “Absorption after oral administration” value in series [1] (humans) was “almost completely absorbed”. Also, the “Fraction of dose metabolized” value in series [1] (humans, mainly oxidative N-dealkylation or aromatic hydroxylation) was “More than 90%”. In addition, the Bioavailability in series [1] (oral administration to humans, rapid first-pass metabolism in the liver) is listed as 40-50%. The “Increase of steady-state plasma levels” value in series [2] was 8 fold.

For orientation: IC50 means the midpoint of a concentration-inhibition curve. `COc1cc(N)c(Cl)cc1C(=O)NC1CCNCC1OC` (racemic) [(±) Norcisapride, 4-amino-5-chloro-N-(3-methoxy-4-piperidinyl)-2-methoxybenzamide]: the figures for the IC50 in series [3], in series [4] and in series [5] were 7.48 µM, 0.0082 µM and 0.686 µM, respectively.

As for `COc1cc(N)c(Cl)cc1C(=O)NC1CCNCC1OC` (single isomer, unassigned; (+)) [(+) Norcisapride, 4-amino-5-chloro-N-(3-methoxy-4-piperidinyl)-2-methoxybenzamide], the results for the IC50 in series [3], in series [4] and in series [5] were 0.0054 µM, 0.0045 µM and 0.331 µM, respectively.

As for `COc1cc(N)c(Cl)cc1C(=O)NC1CCNCC1OC` (single isomer, unassigned; (-)) [(−) Norcisapride, 4-amino-5-chloro-N-(3-methoxy-4-piperidinyl)-2-methoxybenzamide], the values for the concentration for half-maximal inhibition (IC50) in series [3], in series [4] and in series [5] were 1.3 µM, 0.0304 µM and 1.35 µM, respectively.
